Measured values taken from PubChem BioAssay AID210 (DTP/NCI, 2004).
Values joined by “and” are separate entries in the source; they are usually repeats but may differ in a detail not shown here. Equal values may be shown once. Inconclusive results and toxic doses are left out.

Tested on: CD2F1 mice, ip Colon 26 adenocarcinoma, median survival T/C
Test: NCI In Vivo Anticancer Drug Screen. Data for tumor model Colon 26 Adenocarcinoma (intraperitoneal) in CD2F1 (CDF1) mice
Settings: endpoint: median survival time, higher = longer survival
Experimental: The antitumor activity of compounds was measured in mice bearing transplantable tumors. Survival or tumor size were measured and the results are expressed as the measurement made in the treated group (T) divided by the measurement made in the vehicle treated control group (C). The tumor model used in this assay is Colon 26 Adenocarcinoma (intraperitoneal) in CD2F1 (CDF1) mice

Question: What does the source list for C=C/C(C)=C/[C@H](C)C(=O)C[C@H](O)CC1CC(=O)NC(=O)C1?
Answer: T/C (dose: 6.25 mg/kg/injection, schedule: Q04DX003 (ip), vehicle: saline with Tween-80): 97 % of control; T/C (dose: 12.5 mg/kg/injection, schedule: Q04DX003 (ip), vehicle: saline with Tween-80): 100 % of control; T/C (dose: 25.0 mg/kg/injection, schedule: Q04DX003 (ip), vehicle: saline with Tween-80): 108 % of control; T/C (dose: 50.0 mg/kg/injection, schedule: Q04DX003 (ip), vehicle: saline with Tween-80): 109 % of control; T/C (dose: 200.0 mg/kg/injection, schedule: Q04DX003 (ip), vehicle: saline with Tween-80): 121 % of control

Question: For Nc1nc(=S)c2ncn(C3CC(O)C(CO)O3)c2[nH]1 (stereo not given), which T/C (dose: 4.0 mg/kg/injection, schedule: Q04DX002 (ip), vehicle: saline with Tween-80) is on record?
Answer: 121 % of control

Question: What about the T/C (dose: 8.0 mg/kg/injection, schedule: Q04DX002 (ip), vehicle: saline with Tween-80) of the same compound?
Answer: 106 % of control

Question: And the T/C (dose: 10.0 mg/kg/injection, schedule: Q04DX003 (ip), vehicle: saline with Tween-80)?
Answer: 177 % of control

Question: What about the T/C (dose: 16.0 mg/kg/injection, schedule: Q04DX002 (ip), vehicle: saline with Tween-80) of the same compound?
Answer: 106 % of control and 119 % of control

Question: What about the T/C (dose: 32.0 mg/kg/injection, schedule: Q04DX002 (ip), vehicle: saline with Tween-80) of the same compound?
Answer: 102 % of control

Question: What about the T/C (dose: 40.0 mg/kg/injection, schedule: Q04DX003 (ip), vehicle: saline with Tween-80) of the same compound?
Answer: 157 % of control

Question: And the T/C (dose: 64.0 mg/kg/injection, schedule: Q04DX002 (ip), vehicle: saline with Tween-80)?
Answer: 124 % of control

Question: And the T/C (dose: 128.0 mg/kg/injection, schedule: Q04DX002 (ip), vehicle: saline with Tween-80)?
Answer: 116 % of control

Question: What about the T/C (dose: 256.0 mg/kg/injection, schedule: Q04DX002 (ip), vehicle: saline with Tween-80) of the same compound?
Answer: 109 % of control

Question: How did the T/C (dose: 12.5 mg/kg/injection, schedule: Q04DX003 (ip), vehicle: Klucel (hydroxypropylcellulose) (HPC)) turn out when CC(=O)OCc1cc(=O)n(C)c2c3c4c(cc12)c(C)cc(=O)n4CO3 was run?
Answer: 106 % of control

Question: And the T/C (dose: 25.0 mg/kg/injection, schedule: Q04DX003 (ip), vehicle: Klucel (hydroxypropylcellulose) (HPC))?
Answer: 106 % of control

Question: And the T/C (dose: 50.0 mg/kg/injection, schedule: Q04DX003 (ip), vehicle: Klucel (hydroxypropylcellulose) (HPC))?
Answer: 115 % of control

Question: And the T/C (dose: 200.0 mg/kg/injection, schedule: Q04DX003 (ip), vehicle: Klucel (hydroxypropylcellulose) (HPC))?
Answer: 115 % of control

Question: Which results are given for COC(C(=O)C(O)C(C)O)C1CC2C=C3C=C(OC4CC(OC5CC(O)C(OC)C(C)O5)C(OC(C)=O)C(C)O4)C(C)C(=O)C3=C(O)C2=C(O)C1OC1CC(OC2CC(OC3CC(C)(O)C(O)C(C)O3)C(O)C(C)O2)C(O)C(C)O1 (stereo not given)?
Answer: T/C (dose: 0.5 mg/kg/injection, schedule: Q04DX003 (ip), vehicle: saline with Tween-80): 100 % of control; T/C (dose: 1.0 mg/kg/injection, schedule: Q04DX003 (ip), vehicle: saline with Tween-80): 99 % of control; T/C (dose: 2.0 mg/kg/injection, schedule: Q04DX003 (ip), vehicle: saline with Tween-80): 99 % of control; T/C (dose: 4.0 mg/kg/injection, schedule: Q04DX003 (ip), vehicle: saline with Tween-80): 96 % of control; T/C (dose: 8.0 mg/kg/injection, schedule: Q04DX003 (ip), vehicle: saline with Tween-80): 102 % of control

Question: What does the source list for COc1cc([C@@H]2c3cc4c(cc3[C@@H](OC3OC5COC(C)OC5C(O)C3O)[C@H]3COC(=O)[C@H]23)OCO4)cc(OC)c1O (stereo not given in full)?
Answer: T/C (dose: 25.0 mg/kg/injection, schedule: Q03DX002 (ip), vehicle: other): 103 % of control; T/C (dose: 32.0 mg/kg/injection, schedule: Q04DX003 (ip), vehicle: saline): 151 % of control; T/C (dose: 40.0 mg/kg/injection, schedule: Q03DX002 (ip), vehicle: other): 120 % of control; T/C (dose: 60.0 mg/kg/injection, schedule: Q03DX002 (ip), vehicle: other): 107 % of control; T/C (dose: 64.0 mg/kg/injection, schedule: Q04DX003 (ip), vehicle: saline): 193 % of control

Question: What does the source list for Nc1nncs1?
Answer: T/C (dose: 50.0 mg/kg/injection, schedule: Q01DX005 (ip), vehicle: saline): 112 % of control; T/C (dose: 50.0 mg/kg/injection, schedule: Q04DX003 (ip), vehicle: saline): 119 % of control; T/C (dose: 100.0 mg/kg/injection, schedule: Q01DX005 (ip), vehicle: saline): 120 % of control

Question: For CCN(CC)CCNc1ccc(C)c2sc3ccccc3c(=O)c12, which T/C (dose: 25.0 mg/kg/injection, schedule: Q04DX002 (ip), vehicle: suspension in saline) is on record?
Answer: 102 % of control

Question: And the T/C (dose: 50.0 mg/kg/injection, schedule: Q04DX002 (ip), vehicle: suspension in saline)?
Answer: 105 % of control

Question: And the T/C (dose: 100.0 mg/kg/injection, schedule: Q04DX002 (ip), vehicle: suspension in saline)?
Answer: 103 % of control

Question: What about the T/C (dose: 200.0 mg/kg/injection, schedule: Q04DX002 (ip), vehicle: suspension in saline) of the same compound?
Answer: 119 % of control

Question: For C1CCC2[N-]CC3CCCCC3[N-]CC3CCCCC3[N-]CC3CCCCC3[N-]CC2C1.[Cu] (stereo not given), which T/C (dose: 0.63 mg/kg/injection, schedule: Q04DX003 (ip), vehicle: Klucel (hydroxypropylcellulose) (HPC)) is on record?
Answer: 110 % of control

Question: And the T/C (dose: 1.25 mg/kg/injection, schedule: Q04DX003 (ip), vehicle: Klucel (hydroxypropylcellulose) (HPC))?
Answer: 107 % of control

Question: And the T/C (dose: 2.5 mg/kg/injection, schedule: Q04DX003 (ip), vehicle: Klucel (hydroxypropylcellulose) (HPC))?
Answer: 105 % of control

Question: And the T/C (dose: 5.0 mg/kg/injection, schedule: Q04DX003 (ip), vehicle: Klucel (hydroxypropylcellulose) (HPC))?
Answer: 111 % of control

Question: And the T/C (dose: 10.0 mg/kg/injection, schedule: Q04DX003 (ip), vehicle: Klucel (hydroxypropylcellulose) (HPC))?
Answer: 122 % of control

Question: What about the T/C (dose: 20.0 mg/kg/injection, schedule: Q04DX003 (ip), vehicle: Klucel (hydroxypropylcellulose) (HPC)) of the same compound?
Answer: 111 % of control

Question: Which results are given for O=C(O)c1c2c(nc3ccccc13)Cc1ccccc1-2?
Answer: T/C (dose: 12.5 mg/kg/injection, schedule: Q04DX002 (ip), vehicle: water): 97 % of control; T/C (dose: 25.0 mg/kg/injection, schedule: Q04DX002 (ip), vehicle: water): 113 % of control; T/C (dose: 100.0 mg/kg/injection, schedule: Q04DX002 (ip), vehicle: water): 105 % of control

Question: Which results are given for O=NN(CCCl)C(=O)NC1CCCCC1?
Answer: T/C (dose: 10.0 mg/kg/injection, schedule: Q04DX003 (ip), vehicle: carboxymethylcellulose (CMC)): 121 % of control; T/C (dose: 40.0 mg/kg/injection, schedule: Q04DX003 (ip), vehicle: carboxymethylcellulose (CMC)): 196 % of control; T/C (dose: 80.0 mg/kg/injection, schedule: Q04DX003 (ip), vehicle: carboxymethylcellulose (CMC)): 159 % of control

Question: For CCC1(O)CC(OC2CC(N(C)C)C(OC3CC(O)C(OC4CCC(=O)C(C)O4)C(C)O3)C(C)O2)c2c(cc3c(c2O)C(=O)c2c(O)ccc(O)c2C3=O)C1C(=O)OC (stereo not given), which T/C (dose: 0.38 mg/kg/injection, schedule: Q04DX003 (ip), vehicle: saline with Tween-80) is on record?
Answer: 103 % of control

Question: And the T/C (dose: 0.75 mg/kg/injection, schedule: Q04DX003 (ip), vehicle: saline with Tween-80)?
Answer: 117 % of control

Question: And the T/C (dose: 1.5 mg/kg/injection, schedule: Q04DX003 (ip), vehicle: saline with Tween-80)?
Answer: 123 % of control

Question: And the T/C (dose: 3.0 mg/kg/injection, schedule: Q04DX003 (ip), vehicle: saline with Tween-80)?
Answer: 108 % of control

Question: What does the source list for Cc1cc(=O)n2c3c(c4c(cc13)c(CN(C)C)cc(=O)n4C)OC2?
Answer: T/C (dose: 6.25 mg/kg/injection, schedule: Q04DX002 (ip), vehicle: saline with Tween-80): 99 % of control; T/C (dose: 12.5 mg/kg/injection, schedule: Q04DX002 (ip), vehicle: saline with Tween-80): 99 % of control; T/C (dose: 25.0 mg/kg/injection, schedule: Q04DX002 (ip), vehicle: saline with Tween-80): 107 % of control; T/C (dose: 50.0 mg/kg/injection, schedule: Q04DX002 (ip), vehicle: saline with Tween-80): 102 % of control

Question: How did the T/C (dose: 1.5 mg/kg/injection, schedule: Q04DX003 (ip), vehicle: saline) turn out when S=P(N1CC1)(N1CC1)N1CC1 was run?
Answer: 106 % of control

Question: And the T/C (dose: 3.0 mg/kg/injection, schedule: Q04DX003 (ip), vehicle: saline)?
Answer: 115 % of control

Question: What about the T/C (dose: 12.0 mg/kg/injection, schedule: Q04DX003 (ip), vehicle: saline) of the same compound?
Answer: 153 % of control

Question: How did the T/C (dose: 6.2 mg/kg/injection, schedule: Q07DX003 (iv), vehicle: water) turn out when CC[C@@]1(O)C[C@H](OC2CC(N(C)C)C(OC3CC(O)C(OC4CCC(=O)C(C)O4)C(C)O3)C(C)O2)c2c(cc3c(c2O)C(=O)c2c(O)cccc2C3=O)[C@H]1C(=O)OC (stereo not given in full) was run?
Answer: 105 % of control

Question: And the T/C (dose: 10.0 mg/kg/injection, schedule: Q07DX003 (iv), vehicle: water)?
Answer: 119 % of control

Question: What about the T/C (dose: 16.0 mg/kg/injection, schedule: Q07DX003 (iv), vehicle: water) of the same compound?
Answer: 117 % of control

Question: How did the T/C (dose: 40.0 mg/kg/injection, schedule: Q04DX003 (ip), vehicle: saline) turn out when Nc1n[nH]c(N)n1 was run?
Answer: 105 % of control

Question: And the T/C (dose: 80.0 mg/kg/injection, schedule: Q04DX003 (ip), vehicle: saline)?
Answer: 96 % of control

Question: And the T/C (dose: 100.0 mg/kg/injection, schedule: Q04DX003 (ip), vehicle: suspension in saline)?
Answer: 95 % of control

Question: And the T/C (dose: 160.0 mg/kg/injection, schedule: Q04DX003 (ip), vehicle: saline)?
Answer: 112 % of control

Question: And the T/C (dose: 200.0 mg/kg/injection, schedule: Q04DX003 (ip), vehicle: suspension in saline)?
Answer: 104 % of control

Question: And the T/C (dose: 320.0 mg/kg/injection, schedule: Q04DX003 (ip), vehicle: saline)?
Answer: 106 % of control

Question: And the T/C (dose: 400.0 mg/kg/injection, schedule: Q04DX003 (ip), vehicle: suspension in saline)?
Answer: 105 % of control

Question: What about the T/C (dose: 800.0 mg/kg/injection, schedule: Q04DX003 (ip), vehicle: suspension in saline) of the same compound?
Answer: 108 % of control

Question: What about the T/C (dose: 1600.0 mg/kg/injection, schedule: Q04DX003 (ip), vehicle: suspension in saline) of the same compound?
Answer: 100 % of control
